What all share (assay type): cell-based
The test system of data set [1] is muscle stem cells. The data set is described as follows: ROS in muscle stem cells grown with FGF-2. The conditions noted are these: cells grown with FGF-2 vs absence of FGF-2, FIG. 5C. The text has this:
FIGS. 5A-5D are bar graphs, a plot and an electronic image showing that oxidative stress decreases cell viability (FIG. 5A) and myogenic differentiation capacity (FIG. 5B). […] FIG. 5D is an electronic image of muscle cells showing that myosin (staining) declines as ROS increases.

The subject of data set [2] is human skMSC. In words: Growth factor dose response of human skMSC by time-lapsed imaging. Particulars: for number of muscle stem cells: after 3 days in 100 ng/mL, vs lower doses and unstimulated controls; for response of human skMSC to growth factor: time-lapsed imaging.
The subject of data set [3] is muscle stem cells. The data set is described as follows: Growth rate of muscle cells after CFSE labeling. The conditions noted are these: 0 μM, 1 μM or 5 μM CFSE, FIG. 7B. The procedure:
Cells were stained at 1.0 μM, and then analyzed at 0, 2, and 5 days. Note that the low fluorescence intensity approaches that of unstained cells by day 5. FIG. 7D is a plot of sample lineage trees showing the presence of dividing and non-dividing cells. FIG. 7E is a set of plots showing that 24 hours after injection into mdx mice, CFSE-labeled cells are detectable.
Both time-lapsed imaging and FACS sorting were applied to the quiescent population using used cytoplasmic tracking dyes, used 5-6-carboxyfluorescein diacetate, succinimdyl ester, CFSE, and a similar molecule, CMFDA. Once cell permeable CFDA-SE is taken up by cells, intracellular esterases in the cytoplasm cleave acetate groups and convert CFDA to fluorescent CFSE. It was first confirmed that CFSE is impermeable; it was not taken in by unlabeled neighboring cells when CFSE-positive cells die (FIG. 7A). An approach was developed to use CFSE as an effective method for labeling of muscle cells.

Data set [4] relates to human skMSC. In words: BrdU pulse detection of nondividing cells. The conditions noted are these: 3 days exposure, BrdU pulse 36 hours, P=0.01. On the procedure:
Nondividing cells were also detected within the human muscle cell population in the context of GF-dose-dependent studies. […] The cells were pulsed with BrdU for 36 hours (division time=19±4 hrs) immunostaining was performed to detect labeled and unlabeled cells.

The subject of the next data set is stem cells. In words: Rescue from hydrogen peroxide-induced cell death. The text has this: In other words, contacting stem cells with catalytic antioxidants allows the stem cells to proliferate (e.g. increase their numbers) without differentiating and losing the characteristics of stem cells, such as the phenotypic characteristics that distinguish stem cells from other cells. […] Thus, as disclosed herein contacting stem cells with catalytic antioxidants permits in vitro expansion of stem cells while delaying or inhibiting the differentiation of the stem cells, as well as protecting the stem cells from oxidative stress induced cell death.

In data set [5] the test system is muscle stem cells. In words: Division time, cell growth and proliferation of muscle stem cells. On the procedure:
(§1) FIGS. 2A and 2B are a set of bar graphs showing the effect of the catalytic antioxidant FBC-007 on the differentiation of muscle stem cells. The effect of FBC-007 at a concentration of 34 μM was measured on the myogenic differentiation of muscle stem cells. Differentiation was determined as the % of nuclei located within myosin positive myotubes and multinucleated myotubes.
In Vitro Live Cell Imaging (LCI) to study Quiescent Nondividing cells. In vitro LCI is used to measure the fraction or proportion which is quiescent and nondividing after cytokine stimulation. The LCI system is unique in providing time-lapse images to characterize the cell populations. Using CytoTracker, DataCollector, and informatics tools, the growth rates of the populations are determined as described previously (Deasy et al., Stem Cells 20, 50-60 (2002)). In this way subpopulations or individual cells can be quantified. The combined the cell growth counts and the data of cell division time is used to calculate the size of the non-dividing fraction via a non-exponential Sherley equation (Sherley et al., Cell Prolif. 28, 137-44 (1995)).

The subject of data set [6] is human umbilical cord mesenchymal stem cells. The data set is described as follows: Osteogenic differentiation of umbilical cord mesenchymal stem cells (ALP staining). Particulars: 34 μM, BMP4 0, 0.1 or 10 ng/mL, vs control with no antioxidant, FIG. 3. The procedure:
The cells were contacted with the catalytic antioxidant at a concentration of 34 μM and bone morphogenic protein (BMP4) at concentrations of 0, 0.1, or 10 ng/mL.
Umbilical cord mesenchymal stem cells (UC-MSCs) were isolated and cultured. Cells were plated in the presence and absence of catalytic antioxidant. Live cell time-lapsed imaging was used to examine proliferation and apoptosis; images were analyzed using custom software obtained from Kairos Instruments. Osteogenic differentiation was stimulated using previously described methods; Alkaline Phosphatase (ALP) staining was used to determine stem cell differentiation (see Schugar et al., J Biomed Biotechnol 2009, 789526 (2009)). Cell phenotype was examined by flow cytometry (Schugar et al., J Biomed Biotechnol 2009, 789526 (2009)). Levels of intracellular reactive oxygen species were examined using dihydroxyrhodamine 123.

Data set [7] relates to muscle stem cells. The data set is described as follows: Myogenic differentiation of muscle stem cells (% of nuclei within myosin positive myotubes). On the procedure: as §1
In vitro Myogenic Differentiation: Cell populations from 3 different time points (<5 PDs, midpoint PDs, and maximal expansion) are evaluated. Briefly cells are plated at high density of 2000 cells/cm^2 in a low serum medium. After 3-4 days in culture, the media is changed to low serum or 2% serum medium. After day 7, immunocytochemical staining is performed to reveal fast myosin heavy chain (MyHC) expression. Methanol-fixed cultures are blocked with 5% HS and incubated with monoclonal mouse anti-MyHC (Sigma, 1:250, Sigma), biotinylated IgG (1:250, Vector), and streptavidin-Cy3 (1:500). […] In vitro differentiation efficiency is calculated as the ratio of myogenic nuclei to total nuclei.

Where [8] appears, read: stem cell cultures, muscle stem cell and mesenchymal stem cells.

“Also recorded” adds a separate entry of the source.

As to “FGF-2: FGF-2 (basic fibroblast growth factor, bFGF)”, the “reactive oxygen species (ROS)” value in the data set on muscle stem cells [1] is given as “increase in some muscle stem cells”. In addition, in the data set on human skMSC [2], the “number of muscle stem cells” value is given as “significantly more muscle stem cells” and the “response of human skMSC to growth factor” value is “dose-dependent response”.
Turning to “carboxyfluorescein diacetate succinimidyl ester [CFSE]”, the “growth rates after CFSE treatment” value in the data set with muscle stem cells [3] is reported as “does not affect growth rates”.
As for IGF-1: Insulin-like growth factor 1, in the data set on human skMSC [2], the “number of muscle stem cells” value is on record as “significantly more muscle stem cells” and the “response of human skMSC to growth factor” value is “dose-dependent response”. In addition, in the data set with human skMSC [4], the “nondividing cells (BrdU [−])” value was “significantly fewer nondividing cells”.
For the compound `CC[n+]1ccccc1-c1c2nc(c(-c3cccc[n+]3CC)c3ccc([n-]3)c(-c3cccc[n+]3CC)c3nc(c(-c4cccc[n+]4CC)c4ccc1[n-]4)C=C3)C=C2.[Mn+3]` [FBC-007, Mn(III)tetrakis(N-ethylpyridinium-2-yl)porphyrin], the “hydrogen peroxide-induced cell death” value in the data set on stem cells is “can rescue the stem cells”. The “division time of the muscle stem cells” value with muscle stem cells [5] (FBC-007 34 μM, FIG. 2B) is “does not show a statistically significant change”. The cell growth result with muscle stem cells [5] (FIGS. 6A and 6B) is listed as “did not affect cell growth; also recorded: does not affect cell growth”. Moreover, in the data set with muscle stem cells [5] (setting [8]), the “proliferation of the stem cells” value is “without affecting the proliferation”. Besides, the osteogenic differentiation result in data set [6] is on record as “reduced osteogenic differentiation”. The “myogenic differentiation (% of nuclei located within myosin positive myotubes and multinucleated myotubes)” value with muscle stem cells [7] (FBC-007 34 μM vs controls without antioxidant, FIG. 2A) is “reduced levels of differentiation relative to controls”. Besides, the uninduced myogenic differentiation entry with muscle stem cells [7] (absence of growth factor (GF) stimulation, FIG. 6C) is on record as “prevents uninduced myogenic differentiation”. The “myogenic differentiation in stem cell cultures” value in the data set on muscle stem cells [7] (setting [8]) is “inhibits the myogenic differentiation”.

Source of the values: US20120141432A1, “USE OF CATALYTIC ANTIOXIDANT TO PRESERVE STEM CELL PHENOTYPE AND CONTROL CELL DIFFERENTIATION” (University of Pittsburgh- Of the Commonwealth System of …, priority 2010, published 2012).
